Measured values: patent US8603498B2, “Lipo-phosphated or lipo-sulphated compound, compositions comprising it and topical uses thereof” (Sederma, S.A.S., priority 2010, dated 2013)

System: collagen I
Test: Synthesis of collagen I on human dermal fibroblast (immunolabeling)
Type: cell-based
Details: 10^−6%, positive control
Description: Normal human fibroblasts (NHF) are cultivated in MW24 plates for 24 hours. The cells are contacted or not with the Lipo-Phosphomalate of the invention at various concentrations for 7 days. The synthesis of collagen I produced by the cells is then quantified by immunolabeling fixed on the layers using a specific antibody. Quantification by image analysis is then performed on the photos. TGF-β1 is used as positive control.
An analysis of variance was performed on the data (cases treated compared with untreated cases). In the case of identity of variances, a Student't test was then performed on the means.

TGF- β1: positive control for laminin and collagen I synthesis
collagen I % Variation/control: +1374%;
collagen I AFU mean: 55 +/− 17.6 AFU
